Experimental data published in US20110218172A1, “COMPOSITION FOR DOWN-REGULATING PRO-INFLAMMATORY MARKERS” (priority 2010, published 2011).

Assays:
[1] = system: Mycobacterium tuberculli induced inflammatory arthritis in rats (injected paw); assay: Adjuvant-induced developing inflammatory arthritis (prophylactic), injected paw oedema; type: in vivo, Wistar rats; settings: 100 mg/kg oral once daily, day 14, injected paw
Description: Wistar rats, 12-14 weeks old, 140-160 g body weight in groups of 6 were employed in the study. All the animals were maintained in plastic cages at 22±2° C. with 12 h light/dark cycle and free access to pellet food and water. Test materials were administered orally once a day for the duration of the experiment. In all the experiments, a control group was maintained (vehicle administered) whilst the other group received a standard drug acetylsalicylic acid (ASA) administered once daily for comparison and authenticity/credibility of the test. The entire study was carried out after approval from Institutional Animal Ethics Committee and all the animals used in experimental work received humane care. The mean and standard error (S.E.) of the mean for each group was calculated and the results were expressed as percent inhibition compared to control group. The significance was determined statistically by applying Student's t-test.
Adjuvant arthritis was induced by the sub-plantar injection of 0.05 ml freshly prepared suspension (5.0 mg/ml) of steam killed Mycobacterium tuberculosis in liquid paraffin [Newbould BB. Chemotherapy of arthritis induced in rats by mycobacterial adjuvant. Br J Pharmacol 1963; 21:127-36]. The volume of the injected paws was quantitated before and on day 14th after the adjuvant injection and was measured by a volume differential meter model LE 7500N, Panlab, Spain.

[2] = system: intracellular TNF-α in murine neutrophils; assay: Intracellular in vitro TNF-α estimation in LPS-stimulated murine neutrophils (flow cytometry); type: cell-based; settings: 100 μg/ml, 3 h
Description: Cells were stimulated with LPS and incubated with test materials at graded concentrations (μg/ml) for 3 hours, in a CO2 incubator. The permeabilising solution was added to the cells and then these were incubated for 10 min. The cells were then labeled with conjugated anti-mouse TNF-α monoclonal antibody and further incubation of 30 min. duration was carried out in dark. After washing with Phosphate buffered saline, the samples were acquired directly on BD-Cantoll Flowcytometer (Beckton-Dickinson Biosciences, CA, USA). A fluorescence trigger was set on the FL1 parameter of the gated neutrophils populations (10,000 events) and fluorescence compensation, data analysis and data presentation was performed using Cell Quest Pro software. [Clara, B., R. C. Arancha, G. M. Andre's, P. Atanasio, A. Julia, and O. Alberto. 2003. A new method for detecting TNF-α-secreting cells using direct immunofluorescence surface membrane stainings. J. Immuno. Methods 264:77-87.][Khurshid A. Bhat, Bhahwal A. Shah, Kuldeep K. Gupta, Anjali Pandey, Sarang Bani, Subhash C. Taneja. Semi-synthetic analogs of pinitol as potential inhibitors of TNF-a cytokine expression in human neutrophils. Bioorganic & Medicinal Chemistry Letters 19 2009, 1939-1943].

Row | SMILES | Oedema Mean ± S.E. [1] | inhibition at 100 mg/kg ([1]; Mycobacterium, 336 h, read-out: Percentage Activity Against Arthritic Control (↓ percent inhibition)) | % TNF-alpha expression against LPS control (↓ decrease) [2] | intracellular TNF-α expression Mean ± S.E ([2]; n=3)
1 | CC(=O)Oc1ccccc1C(=O)O [ASA, Acetylsalicylic acid] | 1.82 ± 0.17 mm | 37% |  | 
2 | COc1ccc(C2CNC(=O)C2)cc1OC1CCCC1 (stereo not shown) [Rolipram] |  |  | 71.48↓ % | 0.71 ± 0.04
